Target: T1, human PDE2A1 (Homo sapiens, UniProt O00408)
T1 construct: GST; purchased BPS Bioscience (San Diego, Calif.) 60020; host or cells: insect cells
Test: IMAP FP PDE selectivity panel, human PDE2A1
Type: biochemical
Details: Lab B; read-out: Human PDE2 Ki (nM) Lab B
In short: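 Human PDE2A1 tested alongside PDE1–11 by IMAP fluorescence polarization at room temperature. Substrate was 50 nM FAM-cAMP plus 1000 nM cGMP, buffer pH 7.2 with MgCl2 and DTT, enzyme set for 20% conversion. Ten 3-fold compound dilutions; 60 min reaction, then IMAP binding solution, 1 h, parallel/perpendicular fluorescence read.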

T1 sequence (O00408 1-920 isoform O00408-2): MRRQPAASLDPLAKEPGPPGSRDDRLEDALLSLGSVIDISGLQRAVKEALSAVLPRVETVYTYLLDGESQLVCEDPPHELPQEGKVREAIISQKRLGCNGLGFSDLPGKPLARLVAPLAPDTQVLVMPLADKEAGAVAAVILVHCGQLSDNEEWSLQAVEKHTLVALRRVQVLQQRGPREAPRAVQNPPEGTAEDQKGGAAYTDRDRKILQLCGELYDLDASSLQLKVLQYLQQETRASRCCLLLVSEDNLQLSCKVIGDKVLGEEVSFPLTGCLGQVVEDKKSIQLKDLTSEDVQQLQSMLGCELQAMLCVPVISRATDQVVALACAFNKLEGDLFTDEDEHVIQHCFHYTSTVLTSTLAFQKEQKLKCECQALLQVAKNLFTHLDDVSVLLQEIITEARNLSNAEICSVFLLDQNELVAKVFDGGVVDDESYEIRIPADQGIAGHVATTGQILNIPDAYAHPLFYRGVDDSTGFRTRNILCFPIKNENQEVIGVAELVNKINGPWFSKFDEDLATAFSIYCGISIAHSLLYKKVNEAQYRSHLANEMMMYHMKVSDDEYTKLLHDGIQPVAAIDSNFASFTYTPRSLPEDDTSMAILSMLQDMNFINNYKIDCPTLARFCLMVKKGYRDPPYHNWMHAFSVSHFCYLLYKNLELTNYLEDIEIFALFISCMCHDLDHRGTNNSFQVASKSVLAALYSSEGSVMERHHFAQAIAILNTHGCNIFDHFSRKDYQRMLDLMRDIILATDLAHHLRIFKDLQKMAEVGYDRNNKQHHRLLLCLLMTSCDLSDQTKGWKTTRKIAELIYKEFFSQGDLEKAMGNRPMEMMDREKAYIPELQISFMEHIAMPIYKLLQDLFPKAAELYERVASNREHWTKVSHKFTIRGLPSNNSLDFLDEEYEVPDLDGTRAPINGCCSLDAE

Structure (SMILES)	Ki [nM]
Cc1cc(NC(C)(C)c2ccc(SC(F)(F)F)c(F)c2)n2ncnc2n1 [Example 50, N-(1-{3-Fluoro-4-[(trifluoromethyl)sulfanyl]phenyl}-1-methylethyl)-5-methyl[1,2,4]triazolo[1,5-a] pyrimidin-7-amine]	182
Cc1cc(NC(C)(C)c2ccc(OC(F)(F)F)cc2F)n2ncnc2n1 [Example 51, N-{1-[2-Fluoro-4-(trifluoromethoxy)phenyl]-1-methylethyl}-5-methyl [1,2,4]triazolo[1,5-a]pyrimidin-7-amine]	206
Cc1cc(NC(C)(C)c2ccc(C(F)(F)F)cc2C)n2ncnc2n1 [Example 54, 5-Methyl-N-{1-methyl-1-[2-methyl-4-(trifluoromethyl)phenyl]ethyl}[1,2,4]triazolo[1,5-a] pyrimidin-7-amine]	342
Cc1cc(NC(C)(C)c2ccc(SC(F)(F)F)cc2)n2ncnc2n1 [Example 55, 5-Methyl-N-(1-methyl-1-{4-[(trifluoromethyl)sulfanyl]phenyl}ethyl)[1,2,4]triazolo[1,5-a] pyrimidin-7-amine]	211
Cc1cc(NC2(c3ccc(C(F)(F)F)cc3F)CC2)n2ncnc2n1 [Example 62, N-{1-[2-Fluoro-4-(trifluoromethyl)phenyl]cyclopropyl}5-methyl-[1,2,4]triazolo[1,5-a]pyrimidin-7-amine]	162
Cc1cc(NC2(c3ccc(C(F)(F)F)cc3)CCCC2)n2ncnc2n1 [Example 67, 5-Methyl-N-{1-[4-(trifluoromethyl)phenyl]cyclopentyl}[1,2,4]triazolo [1,5-a]pyrimidin-7-amine]	367
Fc1cc(C2(Nc3cc(C(F)(F)C(F)(F)F)nc4ncnn34)CC2)ccc1C(F)(F)F [Example 74, N-{1-[3-Fluoro-4-(trifluoromethyl)phenyl]cyclopropyl}-5-(pentafluoroethyl) [1,2,4]triazolo[1,5-a]pyrimidin-7-amine]	109
COCc1cc(NC2(c3ccc(C(F)(F)F)c(F)c3)CC2)n2ncnc2n1 [Example 75, N-{1-[3-Fluoro-4-(trifluoromethyl)phenyl]cyclopropyl}-5-(methoxymethyl) [1,2,4]triazolo[1,5-a]pyrimidin-7-amine]	201
COCc1cc(N[C@@H](c2ccc(C(F)(F)F)c(F)c2)C(C)(C)C)n2ncnc2n1 [Example 76, N-{(1R)-1-[3-Fluoro-4-(trifluoromethyl)phenyl]-2,2-dimethylpropyl}-5-(methoxymethyl)[1,2,4]triazolo [1,5-a]pyrimidin-7-amine]	969
COCc1cc(N[C@H](C)c2ccc(C(F)(F)F)c(F)c2)n2ncnc2n1 [Example 77, N-{(1R)-1-[3-Fluoro-4-(trifluoromethyl)phenyl]ethyl}-5-(methoxymethyl)[1,2,4]triazolo [1,5-a]pyrimidin-7-amine]	~1180
CC(C)(C)[C@@H](Nc1cc(CO)nc2ncnn12)c1ccc(C(F)(F)F)c(F)c1 [Example 79, [7-({(1R)-1-[3-Fluoro-4-(trifluoromethyl)phenyl]-2,2-dimethylpropyl}amino)[1,2,4]triazolo[1,5-a]pyrimidin-5-yl]methanol]	208
C[C@@H](Nc1cc(CO)nc2ncnn12)c1ccc(C(F)(F)F)c(F)c1 [Example 80, [7-({(1R)-1-[3-Fluoro-4-(trifluoromethyl)phenyl]ethyl}amino)[1,2,4]triazolo[1,5-a]pyrimidin-5-yl]methanol]	387

The next lines start with the values.

Ki [nM]	Structure (SMILES)
78	Cc1cc(NC(C)(C)c2ccc(C(F)(F)F)cc2F)n2ncnc2n1 [Example 52, N-{1-[2-Fluoro-4-(trifluoromethyl)phenyl]-1-methylethyl}-5-methyl [1,2,4]triazolo[1,5-a]pyrimidin-7-amine]
99	Cc1cc(NC(C)(C)c2ccc(C(F)(F)F)cc2)n2ncnc2n1 [Example 53, 5-Methyl-N-{1-methyl-1-[4-(trifluoromethyl)phenyl]ethyl} [1,2,4]triazolo[1,5-a]pyrimidin-7-amine]
52	Cc1cc(NC2(c3ccc(S(F)(F)(F)(F)F)cc3)CC2)n2ncnc2n1 [Example 58, 5-Methyl-N-{1-[4-(pentafluoro-λ^6-sulfanyl)phenyl]cyclopropyl}[1,2,4] triazolo[1,5-a]pyrimidin-7-amine]
72	Cc1cc(NC2(c3ccc(SC(F)(F)F)cc3)CC2)n2ncnc2n1 [Example 59, 5-Methyl-N-(1-{4-[(trifluoromethyl)sulfanyl]phenyl}cyclopropyl)[1,2,4]triazolo [1,5-a]pyrimidin-7-amine]
32	Cc1cc(NC2(c3ccc(OC(F)(F)F)c(F)c3)CC2)n2ncnc2n1 [Example 60, N-{1-[3-Fluoro-4-(trifluoromethoxy)phenyl]cyclopropyl}5-methyl-[1,2,4]triazolo[1,5-a]pyrimidin-7-amine]
81	Cc1cc(NC2(c3ccc(C(C)(C)C)cc3)CC2)n2ncnc2n1 [Example 61, N-{1-[4-(tert-Butyl)phenyl]cyclopropyl}5-methyl-[1,2,4]triazolo[1,5-a]pyrimidin-7-amine]
33	Cc1cc(NC2(c3ccc(SC(F)(F)F)c(F)c3)CC2)n2ncnc2n1 [Example 63, N-(1-{3-Fluoro-4-[(trifluoromethyl)sulfanyl]phenyl}cyclopropyl)-5-methyl[1,2,4]triazolo[1,5-a] pyrimidin-7-amine]
77	Cc1cc(NC2(c3ccc(C(F)(F)F)cc3)CCC2)n2ncnc2n1 [Example 64, 5-Methyl-N-{1-[4-(trifluoromethyl)phenyl]cyclobutyl}[1,2,4]triazolo [1,5-a]pyrimidin-7-amine]
75	Cc1cc(NC2(c3ccc(SC(F)(F)F)cc3)CCC2)n2ncnc2n1 [Example 65, 5-Methyl-N-(1-{4-[(trifluoromethyl)sulfanyl]phenyl}cyclobutyl)[1,2,4] triazolo[1,5-a]pyrimidin-7-amine]
108	Cc1cc(NC2(c3ccc(SC(F)(F)F)c(F)c3)CCC2)n2ncnc2n1 [Example 66, N-(1-{3-Fluoro-4-[(trifluoromethyl)sulfanyl]phenyl}cyclobutyl)-5-methyl[1,2,4]triazolo[1,5-a] pyrimidin-7-amine]
3.7	Fc1cc(C2(Nc3cc(C4CC4)nc4ncnn34)CC2)ccc1C(F)(F)F [Example 70, 5-Cyclopropyl-N-{1-[3-fluoro-4-(trifluoromethyl)phenyl]cyclopropyl}[1,2,4]triazolo[1,5-a]pyrimidin-7-amine]
25	Fc1cc(C2(Nc3cc(C4CC4)nc4ncnn34)CC2)ccc1OC(F)(F)F [Example 71, 5-Cyclopropyl-N-{1-[3-fluoro-4-(trifluoromethoxy)phenyl]cyclo-propyl}[1,2,4]triazolo[1,5-a]pyrimidin-7-amine]
26	FS(F)(F)(F)(F)c1ccc(C2(Nc3cc(C4CC4)nc4ncnn34)CC2)cc1 [Example 72, 5-Cyclopropyl-N-{1-[4-(pentafluoro-λ^6-sulfanyl)phenyl]cyclopropyl}[1,2,4] triazolo[1,5-a]pyrimidin-7-amine]
72	CC(C)(C)c1cc(NC2(c3ccc(C(F)(F)F)c(F)c3)CC2)n2ncnc2n1 [Example 73]
92	OCc1cc(NC2(c3ccc(C(F)(F)F)c(F)c3)CC2)n2ncnc2n1 [Example 78, [7-({1-[3-Fluoro-4-(trifluoromethyl)phenyl]cyclopropyl}amino)[1,2,4]triazolo[1,5-a]pyrimidin-5-yl]methanol]

— patent publication US10357481B2 (MERCK SHARP & DOHME CORP., priority 2015, dated 2019)
